Data taken from PubChem BioAssay AID1963874 (Molecular Pharmacology Branch, DTP, NCI, 2024).

Test system: 253994-281-T-J1-PDC KRAS-mutant spheroids with HUVEC/MSC, viability
Experiment: Anticancer human tumor 253994-281-T-J1-PDC patient-derived colorectal carcinoma cell line growth inhibition [KRAS2]
Conditions: for IC50: curve of first compound; for viability, T/C: stronger effect = lower value
How it was run: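 KRAS-mutant tumor cells were grown as spheroids with HUVEC endothelial cells and human MSCs as stroma. Targeted agents were tested alone and with KRAS pathway inhibitors. Doses started at or near clinical Cmax, or 10 microM, descending half-log.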

[1] = second compound 0.1 µM, first compound 0.0316 µM
[2] = second compound 0.1 µM, first compound 0.1 µM
[3] = second compound 0.1 µM, first compound 0.316 µM
[4] = second compound 0.1 µM, first compound 1 µM
[5] = second compound 0.1 µM, first compound 3.16 µM
[6] = second compound 0.1 µM, first compound 10 µM
[7] = second compound 0.316 µM, first compound 0.0316 µM
[8] = second compound 0.316 µM, first compound 0.1 µM
[9] = second compound 0.316 µM, first compound 0.316 µM
[10] = second compound 0.316 µM, first compound 1 µM
[11] = second compound 0.316 µM, first compound 3.16 µM
[12] = second compound 0.316 µM, first compound 10 µM
[13] = second compound 1 µM, first compound 0.0316 µM
[14] = second compound 1 µM, first compound 0.1 µM
[15] = second compound 1 µM, first compound 0.316 µM
[16] = second compound 1 µM, first compound 1 µM
[17] = second compound 1 µM, first compound 3.16 µM
[18] = second compound 1 µM, first compound 10 µM
[19] = second compound 3.16 µM, first compound 0.0316 µM
[20] = second compound 3.16 µM, first compound 0.1 µM
[21] = second compound 3.16 µM, first compound 0.316 µM
[22] = second compound 3.16 µM, first compound 1 µM
[23] = second compound 3.16 µM, first compound 3.16 µM
[24] = second compound 3.16 µM, first compound 10 µM
[25] = second compound 10 µM, first compound 0.0316 µM
[26] = second compound 10 µM, first compound 0.1 µM
[27] = second compound 10 µM, first compound 0.316 µM
[28] = second compound 10 µM, first compound 1 µM
[29] = second compound 10 µM, first compound 3.16 µM
[30] = second compound 10 µM, first compound 10 µM
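Note: spheroids exposed to agents for seven days before readout.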
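Throughout, for viability, T/C: percent of DMSO vehicle control viability.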

| SMILES | IC50 (second compound 0.1 µM) | IC50 (second compound 0.316 µM) | IC50 (second compound 1 µM) | IC50 (second compound 3.16 µM) | viability, T/C [1] | viability, T/C [2] | viability, T/C [3] | viability, T/C [4] | viability, T/C [7] | viability, T/C [8] | viability, T/C [9] | viability, T/C [10] | viability, T/C [13] | viability, T/C [14] | viability, T/C [15] | viability, T/C [16] | viability, T/C [19] | viability, T/C [20] | viability, T/C [21] | viability, T/C [22] | other results |
| --- | --- | --- | --- | --- | --- | --- | --- | --- | --- | --- | --- | --- | --- | --- | --- | --- | --- | --- | --- | --- | --- |
| COc1cc(Nc2ncc3c(n2)-c2ccc(Cl)cc2C(c2c(F)cccc2OC)=NC3)ccc1C(=O)O + CC1OCC2(CCN(c3cnc(Sc4ccnc(N)c4Cl)c(N)n3)CC2)C1N | < 31.6 nM | < 31.6 nM | < 31.6 nM | < 31.6 nM | 51% | 25.3% | 24.6% | 28.7% | 34.6% | 21.5% | 22% | 26% | 23.4% | 16.7% | 17.7% | 19.6% | 19.5% | 14.2% | 14.1% | 18.5% | IC50 (second compound 10 µM): < 31.6 nM; viability, T/C [5]: 40.4%; viability, T/C [6]: 42.6%; viability, T/C [11]: 25.8%; viability, T/C [12]: 23.7%; viability, T/C [17]: 18.7%; viability, T/C [18]: 20.1%; viability, T/C [23]: 14.2%; viability, T/C [24]: 21%; viability, T/C [25]: 13.3%; viability, T/C [26]: 12.5%; viability, T/C [27]: 10.3%; viability, T/C [28]: 9.72%; viability, T/C [29]: 10.8%; viability, T/C [30]: 9.48% |
| CCN1CCN(Cc2ccc(Nc3ncc(F)c(-c4cc(F)c5nc(C)n(C(C)C)c5c4)n3)nc2)CC1 + C=CC(=O)N1CCN(c2nc(OCC3CCCN3C)nc3c2CCN(c2cccc4cccc(C)c24)C3)CC1CC#N | 751 nM | > 1000 nM | 586 nM | 41.4 nM | 79.3% | 82.5% | 73.4% | 42.2% | 85% | 77.5% | 68% | 52.5% | 82.7% | 74.9% | 64.9% | 38% | 57% | 32.9% | 15.3% | 1.78% | IC50 (second compound 0.0316 µM): > 1000 nM; viability, T/C (second compound 0.0316 µM, first compound 0.00316 µM): 91.2%; viability, T/C (second compound 0.0316 µM, first compound 0.01 µM): 105%; viability, T/C (second compound 0.0316 µM, first compound 0.0316 µM): 79.4%; viability, T/C (second compound 0.0316 µM, first compound 0.1 µM): 92.2%; viability, T/C (second compound 0.0316 µM, first compound 0.316 µM): 66.8%; viability, T/C (second compound 0.0316 µM, first compound 1 µM): 51.6%; viability, T/C (second compound 0.1 µM, first compound 0.00316 µM): 88.7%; viability, T/C (second compound 0.1 µM, first compound 0.01 µM): 89.7%; viability, T/C (second compound 0.316 µM, first compound 0.00316 µM): 90.5%; viability, T/C (second compound 0.316 µM, first compound 0.01 µM): 92.4%; viability, T/C (second compound 1 µM, first compound 0.00316 µM): 81.4%; viability, T/C (second compound 1 µM, first compound 0.01 µM): 95.7%; viability, T/C (second compound 3.16 µM, first compound 0.00316 µM): 61.5%; viability, T/C (second compound 3.16 µM, first compound 0.01 µM): 61.1% |
| COc1cc2nccc(Oc3ccc(NC(=O)C4(C(=O)Nc5ccc(F)cc5)CC4)cc3)c2cc1OC + COc1cc2nc(C)nc(NC(C)c3cc(N)cc(C(F)(F)F)c3)c2cc1OC1CCOC1 | > 10000 nM | > 10000 nM | 5930 nM | 4910 nM | 99.1% | 101% | 118% | 89.4% | 106% | 110% | 113% | 109% | 101% | 106% | 101% | 92.5% | 99.6% | 97.3% | 109% | 104% | IC50 (second compound 10 µM): 5180 nM; viability, T/C [5]: 87.6%; viability, T/C [6]: 52.2%; viability, T/C [11]: 92.2%; viability, T/C [12]: 59.3%; viability, T/C [17]: 76.4%; viability, T/C [18]: 28.3%; viability, T/C [23]: 70.2%; viability, T/C [24]: 17.7%; viability, T/C [25]: 93.8%; viability, T/C [26]: 89.1%; viability, T/C [27]: 86.5%; viability, T/C [28]: 82.3%; viability, T/C [29]: 81.7%; viability, T/C [30]: 7.51% |
